Reference: the NIST ThermoML archive (doi:10.1021/acs.jced.5b00582)
± gives the expanded uncertainty stated by the source.

Tests used:
[1] = Liquid; for mass density: 298.15 K, 101.33 kPa, Pycnometric method; for vapor or sublimation pressure: Ebulliometric method (Recirculating still)
[2] = refractive index (Na D-line) (dimensionless); conditions: 298.15 K; 101.33 kPa; Liquid; Standard Abbe refractometry

Row | mass density [1] [kg/m3] | vapor or sublimation pressure ([1]; 357.71 K) [kPa] | refractive index [2] | vapor or sublimation pressure ([1]; 385.12 K) [kPa] | vapor or sublimation pressure ([1]; 397.48 K) [kPa] | SMILES | vapor or sublimation pressure ([1]; 352.76 K) [kPa]
1 | 860.4 ± 0.3 | 101.3 ± 0.86 | 1.378 ± 0.0004 |  |  | COCCOC [1,2-dimethoxyethane] | 
2 | 863.8 ± 0.3 |  | 1.3872 ± 0.0004 | 101.3 ± 0.86 |  | CCC(C)OC(C)=O (configuration not stated) [1-methylpropyl ethanoate] | 
3 | 960.1 ± 0.3 |  | 1.4002 ± 0.0004 |  | 101.3 ± 0.86 | COCCO [2-methoxyethan-1-ol] | 

Row | SMILES | mass density [1] [kg/m3] | vapor or sublimation pressure ([1]; 357.71 K) [kPa] | refractive index [2] | vapor or sublimation pressure ([1]; 385.12 K) [kPa] | vapor or sublimation pressure ([1]; 397.48 K) [kPa] | vapor or sublimation pressure ([1]; 352.76 K) [kPa]
4 | CCC(C)=O [butanone] | 799.7 ± 0.3 |  | 1.3761 ± 0.0004 |  |  | 101.3 ± 0.86
